# According to patent publication US20250059232A1, “PENTAPEPTIDE AND USE THEREOF” (ENSOL BIOSCIENCES INC., priority 2021, published 2025):
# Experiments:
# MDA-MB-231 = MDA-MB-231 xenograft in BalB/c nude mouse: survival rate; format: in vivo; conditions: 100 mg/kg subcutaneously 3 times weekly, co-administered with paclitaxel 20 mg/kg once weekly
# Experimental: To investigate survival rates of the paclitaxel-only administration group and the group co-administered with paclitaxel and the peptide of Example 1, experiments described below were performed. 5×10^6 cells/head of the human triple negative breast cancer cell line MDA-MB-231 were mixed with Matrigel and PBS (1:1). 100 ul of the mixture was injected into the right third fat pad of 7-week-old female BalB/c nude mouse. After the transplantation, drug administration started from an average tumor size of 70 mm^3. Paclitaxel 20 mg/kg was administered once weekly, and the peptide 100 mg/kg of Example 1 was administered subcutaneously 3 times weekly at 48-hour intervals, 48 hours after the paclitaxel administration. Each test group was administered for 12 weeks and animal survival was observed daily. FIG. 10 is a graph illustrating survival rates over time after sample administration in animal experimentation. In FIG. 10, the x-axis represents the elapsed time (days) after administration and the y-axis represents survival rates (%). […] In the case of the group co-administered with the peptide of Example 1, the first deceased mouse occurred on Day 60 of administration.
# [1] = 4-week repeated subcutaneous toxicity test in rats; format: in vivo, rat
# Experimental: Ten female and male rats were administered the pentapeptide of Example 1 subcutaneously at doses of 500, 1000, 2000 mg/kg daily for 4 weeks to investigate toxicity, and a safety evaluation test was performed. Specifically, general symptom observation, body weight measurement, feed consumption measurement, ophthalmological examination, and urinary examination were performed. After the end of the observation period, hematology and clinical biochemistry test, organ weight measurement, visual examination at autopsy, and histopathological examination were performed. […] Synthesizing the results described above, the no observed adverse effect level (NOEAL) for female and male was determined to be greater than or equal to 2,000 mg/kg/day when the pentapeptide of Example 1 was administered repeatedly subcutaneously to the rats for 4 weeks.
# [2] = Stability test: HPLC relative purity of peptide dissolved in buffer, by pH and temperature; format: physicochemical
# Experimental: For Example 1 and Comparative Example 1, stability tests according to pH for each temperature were performed.
# Stability tests for each peptide were performed by liquid chromatography purity analysis for each temperature and each pH according to analysis timing (initial, 24 hours, 130 hours). […] Samples were analyzed by injecting 20 ul of each sample with an auto-sample injector, and the analysis column was Inspire C18 (4.6×250 mm, […], 12 nm) manufactured by Dikma. The analysis temperature was 40° C., and a UV wavelength of 215 nm was used.
# On the basis of the HPLC analysis results, relative purity was calculated for Comparative Example 1 and Example 1 for each storage condition. The relative purity is the percentage of measured purity changing according to the storage period, with the initial purity being set to 100% for each sample. FIGS. 1 and 2 are graphs showing the results of stability tests for Example and Comparative Example stored at a temperature of 25° C., in which FIG. 1 is a graph of a test result for 24 hours of storage, and FIG. 2 is a graph of a test result for 130 hours of storage. FIGS. 3 and 4 are graphs showing the results of stability tests for Example and Comparative Example stored at 40° C., in which FIG. 3 is a graph of a test result for 24 hours of storage, and FIG. 4 is a graph of a test result for 130 hours of storage. In each graph, the x-axis represents the test group by pH and the y-axis represents the relative purity […].
# PC3 = PC3 cell viability (CCK-8) in NK92 co-culture with anti-PD-L1; format: cell-based, human; conditions: 300 uM with 10 ug/ml anti-PD-L1, 24/48/72 hours of co-culturing
# Experimental: The experiment described below was performed to evaluate the tumor cell proliferation inhibitory effect of the combination treatment of the peptide of Example 1 and the anti-PD-L1, which is an immune checkpoint inhibitor. First, 5×10^3 cells of a human prostate cancer cell line PC3, 5×10^3 cells of a human lung cancer cell line A549 (Korean Cell Line Bank), and 1×10^4 cells of a human triple negative breast cancer cell line MDA-MB-231 (ATCC) were seeded in 96 wells and stabilized by culturing overnight. Then, the seeded cells were treated with 10 ug/ml of the anti-PD-L1 and 300 uM of the peptide of Example 1, for each condition while NK92 cells for 5×10^3 cells of each of the PC3 cell line and the MDA-MB-231 cell line and 2.5×10^3 cells of the A549 cell line were additionally seeded. After 24/48/72 hours of co-culturing (for PC3 and MDA-MB-231) and 24/48 hours of co-culturing (for A549), the NK92 cells were removed by washing, and the cancer cell viability was measured by CCK-8 addition. FIG. 15 is a graph illustrating the changes in PC3 cell viability over culturing time for each test group in an anticancer effect evaluation test. In FIG. 15, the x-axis represents culturing time and the y-axis represents cell viability (%). FIG. 16 is a graph illustrating the changes in A549 cell viability over culturing time for each test group in an anticancer effect evaluation test. […]
# [3] = 500, 1000, 2000 mg/kg subcutaneous daily for 4 weeks
substance,measurement,setting,value
"Ac-QLHLD-OH [Example 1, acetyl-QLHLD]",Day of administration on which the first deceased mouse occurred,MDA-MB-231,60 days
same,Adverse findings related to the pentapeptide,[1]; [3],no adverse findings
same,Deaths,[1]; [3],no deaths occurred
same,No observed adverse effect level (NOEAL),"[1]; female and male, subcutaneous, daily for 4 weeks","greater than or equal to 2,000 mg/kg/day"
same,Stability (summary in words),"[2]; liquid state, pH 2-9, 25 and 40° C., up to 130 hours",extremely stable regardless of storage conditions
same,Relative purity,"[2]; pH 2, 25 ± 2° C., RH 60 ± 5%, storage 0 hours (initial set to 100%)",100.0%
same,Relative purity,"[2]; pH 2, 25 ± 2° C., RH 60 ± 5%, storage 24 hours",99.7%
same,Relative purity,"[2]; pH 2, 25 ± 2° C., RH 60 ± 5%, storage 130 hours",99.9%
same,Relative purity,"[2]; pH 2, 40 ± 2° C., RH 75 ± 5%, storage 0 hours (initial set to 100%)",100.0%
same,Relative purity,"[2]; pH 2, 40 ± 2° C., RH 75 ± 5%, storage 24 hours",99.4%
same,Relative purity,"[2]; pH 2, 40 ± 2° C., RH 75 ± 5%, storage 130 hours",95.8%
same,Relative purity,"[2]; pH 5, 25 ± 2° C., RH 60 ± 5%, storage 0 hours (initial set to 100%)",100.0%
same,Relative purity,"[2]; pH 5, 25 ± 2° C., RH 60 ± 5%, storage 24 hours",100.0%
same,Relative purity,"[2]; pH 5, 25 ± 2° C., RH 60 ± 5%, storage 130 hours",100.0%
same,Relative purity,"[2]; pH 5, 40 ± 2° C., RH 75 ± 5%, storage 0 hours (initial set to 100%)",100.0%
same,Relative purity,"[2]; pH 5, 40 ± 2° C., RH 75 ± 5%, storage 24 hours",100.0%
same,Relative purity,"[2]; pH 5, 40 ± 2° C., RH 75 ± 5%, storage 130 hours",100.0%
same,Relative purity,"[2]; pH 7, 25 ± 2° C., RH 60 ± 5%, storage 0 hours (initial set to 100%)",100.0%
same,Relative purity,"[2]; pH 7, 25 ± 2° C., RH 60 ± 5%, storage 24 hours",100.0%
same,Relative purity,"[2]; pH 7, 25 ± 2° C., RH 60 ± 5%, storage 130 hours",100.0%
same,Relative purity,"[2]; pH 7, 40 ± 2° C., RH 75 ± 5%, storage 0 hours (initial set to 100%)",100.0%
same,Relative purity,"[2]; pH 7, 40 ± 2° C., RH 75 ± 5%, storage 24 hours",100.0%
same,Relative purity,"[2]; pH 7, 40 ± 2° C., RH 75 ± 5%, storage 130 hours",100.0%
same,Relative purity,"[2]; pH 9, 25 ± 2° C., RH 60 ± 5%, storage 0 hours (initial set to 100%)",100.0%
same,Relative purity,"[2]; pH 9, 25 ± 2° C., RH 60 ± 5%, storage 24 hours",100.0%
same,Relative purity,"[2]; pH 9, 25 ± 2° C., RH 60 ± 5%, storage 130 hours",100.0%
same,Relative purity,"[2]; pH 9, 40 ± 2° C., RH 75 ± 5%, storage 0 hours (initial set to 100%)",100.0%
same,Relative purity,"[2]; pH 9, 40 ± 2° C., RH 75 ± 5%, storage 24 hours",99.9%
same,Relative purity,"[2]; pH 9, 40 ± 2° C., RH 75 ± 5%, storage 130 hours",99.8%
same,Cancer cell viability compared to the group treated with only anti-PD-L1,PC3,significant decrease in cancer cell viability
